Source: PMC7982320 (Pharmacology Research & Perspectives, 2021)
Entries after “also recorded” stand apart in the source; their conditions may differ.

Assays:
Assay type in all cases: in vitro ADME
human OAT3 = target: T1, human OAT3 (Homo sapiens, UniProt Q8TCC7); experiment: Uptake transporter substrate assay; conditions: OAT3 UPT; for Maximum fold accumulation over control: maximum seen at 5 µM and 20 min, n = 3
T1 sequence (Q8TCC7 1-542): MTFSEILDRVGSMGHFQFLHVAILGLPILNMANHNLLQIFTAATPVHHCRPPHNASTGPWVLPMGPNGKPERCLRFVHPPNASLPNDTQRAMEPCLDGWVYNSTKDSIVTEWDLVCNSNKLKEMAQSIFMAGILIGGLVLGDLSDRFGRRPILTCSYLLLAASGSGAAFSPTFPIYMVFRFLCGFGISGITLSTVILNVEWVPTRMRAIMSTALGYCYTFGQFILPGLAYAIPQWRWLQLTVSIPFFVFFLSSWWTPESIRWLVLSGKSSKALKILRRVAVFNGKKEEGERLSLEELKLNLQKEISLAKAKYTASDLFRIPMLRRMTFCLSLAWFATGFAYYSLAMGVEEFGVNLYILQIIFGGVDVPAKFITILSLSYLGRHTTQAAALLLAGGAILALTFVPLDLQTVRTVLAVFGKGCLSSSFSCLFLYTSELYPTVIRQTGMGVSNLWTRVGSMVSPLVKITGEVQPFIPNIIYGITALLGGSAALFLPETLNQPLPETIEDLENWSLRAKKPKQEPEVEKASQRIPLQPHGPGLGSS

human MDR1 = human MDR1 (Homo sapiens, UniProt P08183); experiment: Transporter substrate assay, MDCKII‐MDR1 monolayer bidirectional transport; conditions: MDR1 ML; for Maximum net ER: maximum seen at 1 and 5 µM, n = 3
human OAT1 = target: T2, human OAT1 (Homo sapiens, UniProt Q4U2R8); experiment: Uptake transporter substrate assay; conditions: OAT1 UPT; for Maximum fold accumulation over control: maximum seen at 2.5 µM and 20 min, n = 3
T2 sequence (Q4U2R8 1-563): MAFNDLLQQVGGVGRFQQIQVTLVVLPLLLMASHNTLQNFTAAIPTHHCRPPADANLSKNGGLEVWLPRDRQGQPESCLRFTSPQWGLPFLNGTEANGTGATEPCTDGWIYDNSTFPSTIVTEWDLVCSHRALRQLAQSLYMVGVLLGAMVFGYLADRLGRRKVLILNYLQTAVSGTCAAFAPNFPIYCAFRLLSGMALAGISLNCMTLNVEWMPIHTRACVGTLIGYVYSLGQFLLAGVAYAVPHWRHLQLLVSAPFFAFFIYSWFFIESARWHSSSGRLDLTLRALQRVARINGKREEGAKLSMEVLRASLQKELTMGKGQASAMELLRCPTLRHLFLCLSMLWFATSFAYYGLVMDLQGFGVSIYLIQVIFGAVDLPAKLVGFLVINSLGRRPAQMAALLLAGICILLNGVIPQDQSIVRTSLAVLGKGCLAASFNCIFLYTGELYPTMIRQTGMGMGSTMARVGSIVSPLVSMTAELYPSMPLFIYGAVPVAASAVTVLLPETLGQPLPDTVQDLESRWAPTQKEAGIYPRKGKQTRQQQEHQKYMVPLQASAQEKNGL

human MATE2‐K = human MATE2‐K (Homo sapiens, UniProt Q86VL8); experiment: Uptake transporter substrate assay; conditions: MATE2‐K UPT; for Maximum fold accumulation over control: maximum seen at 2.5 µM and 20 min, n = 3
human BCRP = target: T3, human BCRP (Homo sapiens, UniProt Q9UNQ0); experiment: Transporter substrate assay, MDCKII‐BCRP monolayer bidirectional transport; conditions: BCRP ML; for Maximum net ER: maximum seen at 2.5 µM, n = 3
T3 sequence (Q9UNQ0 1-655): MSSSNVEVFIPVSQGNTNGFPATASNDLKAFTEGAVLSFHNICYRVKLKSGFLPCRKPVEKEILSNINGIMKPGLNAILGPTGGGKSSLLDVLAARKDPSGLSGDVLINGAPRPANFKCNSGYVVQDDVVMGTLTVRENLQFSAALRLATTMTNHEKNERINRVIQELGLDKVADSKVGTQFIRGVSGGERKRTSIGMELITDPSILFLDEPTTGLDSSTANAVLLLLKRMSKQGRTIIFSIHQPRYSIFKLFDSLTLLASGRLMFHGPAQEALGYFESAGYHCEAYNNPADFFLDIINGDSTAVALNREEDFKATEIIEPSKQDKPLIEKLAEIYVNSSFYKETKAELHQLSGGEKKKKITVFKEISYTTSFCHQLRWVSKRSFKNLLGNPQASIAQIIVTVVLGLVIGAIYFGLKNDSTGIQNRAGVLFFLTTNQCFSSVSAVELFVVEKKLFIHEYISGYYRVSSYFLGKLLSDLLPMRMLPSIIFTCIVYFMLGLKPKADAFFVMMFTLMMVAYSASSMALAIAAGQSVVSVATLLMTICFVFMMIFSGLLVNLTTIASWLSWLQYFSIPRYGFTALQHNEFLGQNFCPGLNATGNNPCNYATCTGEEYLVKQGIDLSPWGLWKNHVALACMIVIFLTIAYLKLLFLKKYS

human OCT2 = target: T4, human OCT2 (Homo sapiens, UniProt O15244); experiment: Uptake transporter substrate assay; conditions: OCT2 UPT; for Maximum fold accumulation over control: maximum seen at 1 µM and 20 min, n = 3
T4 sequence (O15244 1-555): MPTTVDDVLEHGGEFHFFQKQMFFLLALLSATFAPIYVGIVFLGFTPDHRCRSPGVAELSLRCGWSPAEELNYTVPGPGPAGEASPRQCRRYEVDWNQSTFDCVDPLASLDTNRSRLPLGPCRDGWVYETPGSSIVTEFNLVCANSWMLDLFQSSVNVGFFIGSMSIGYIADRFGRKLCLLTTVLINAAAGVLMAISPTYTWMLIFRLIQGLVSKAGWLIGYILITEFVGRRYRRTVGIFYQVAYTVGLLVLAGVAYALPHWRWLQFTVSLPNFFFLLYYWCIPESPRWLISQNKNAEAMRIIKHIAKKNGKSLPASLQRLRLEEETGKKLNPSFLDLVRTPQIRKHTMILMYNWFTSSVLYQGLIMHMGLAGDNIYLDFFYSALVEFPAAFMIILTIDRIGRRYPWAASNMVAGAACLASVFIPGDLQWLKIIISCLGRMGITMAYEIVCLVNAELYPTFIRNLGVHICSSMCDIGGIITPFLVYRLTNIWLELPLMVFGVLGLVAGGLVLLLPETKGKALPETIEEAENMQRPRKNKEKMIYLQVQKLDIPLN

[1] = listed as 6β‐hydroxy‐21‐desacetyl deflazacort

Chain of human MATE2‐K (Q86VL8 1-566 isoform Q86VL8-3): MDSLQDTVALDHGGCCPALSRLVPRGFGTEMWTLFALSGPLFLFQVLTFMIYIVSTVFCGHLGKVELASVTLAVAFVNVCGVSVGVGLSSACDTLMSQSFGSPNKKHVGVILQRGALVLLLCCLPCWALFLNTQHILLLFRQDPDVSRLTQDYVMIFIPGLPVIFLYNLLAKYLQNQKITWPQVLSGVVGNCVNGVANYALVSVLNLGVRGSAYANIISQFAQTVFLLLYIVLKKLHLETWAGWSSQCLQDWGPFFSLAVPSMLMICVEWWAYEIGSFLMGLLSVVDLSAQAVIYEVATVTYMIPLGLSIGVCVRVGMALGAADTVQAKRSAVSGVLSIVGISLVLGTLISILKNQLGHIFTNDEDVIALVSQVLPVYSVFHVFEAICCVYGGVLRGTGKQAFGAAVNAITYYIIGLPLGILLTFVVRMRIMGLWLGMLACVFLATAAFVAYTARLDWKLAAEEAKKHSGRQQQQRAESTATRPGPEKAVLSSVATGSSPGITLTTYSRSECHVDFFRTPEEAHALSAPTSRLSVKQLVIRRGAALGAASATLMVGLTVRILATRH
Chain of human MDR1 (P08183 whole entry): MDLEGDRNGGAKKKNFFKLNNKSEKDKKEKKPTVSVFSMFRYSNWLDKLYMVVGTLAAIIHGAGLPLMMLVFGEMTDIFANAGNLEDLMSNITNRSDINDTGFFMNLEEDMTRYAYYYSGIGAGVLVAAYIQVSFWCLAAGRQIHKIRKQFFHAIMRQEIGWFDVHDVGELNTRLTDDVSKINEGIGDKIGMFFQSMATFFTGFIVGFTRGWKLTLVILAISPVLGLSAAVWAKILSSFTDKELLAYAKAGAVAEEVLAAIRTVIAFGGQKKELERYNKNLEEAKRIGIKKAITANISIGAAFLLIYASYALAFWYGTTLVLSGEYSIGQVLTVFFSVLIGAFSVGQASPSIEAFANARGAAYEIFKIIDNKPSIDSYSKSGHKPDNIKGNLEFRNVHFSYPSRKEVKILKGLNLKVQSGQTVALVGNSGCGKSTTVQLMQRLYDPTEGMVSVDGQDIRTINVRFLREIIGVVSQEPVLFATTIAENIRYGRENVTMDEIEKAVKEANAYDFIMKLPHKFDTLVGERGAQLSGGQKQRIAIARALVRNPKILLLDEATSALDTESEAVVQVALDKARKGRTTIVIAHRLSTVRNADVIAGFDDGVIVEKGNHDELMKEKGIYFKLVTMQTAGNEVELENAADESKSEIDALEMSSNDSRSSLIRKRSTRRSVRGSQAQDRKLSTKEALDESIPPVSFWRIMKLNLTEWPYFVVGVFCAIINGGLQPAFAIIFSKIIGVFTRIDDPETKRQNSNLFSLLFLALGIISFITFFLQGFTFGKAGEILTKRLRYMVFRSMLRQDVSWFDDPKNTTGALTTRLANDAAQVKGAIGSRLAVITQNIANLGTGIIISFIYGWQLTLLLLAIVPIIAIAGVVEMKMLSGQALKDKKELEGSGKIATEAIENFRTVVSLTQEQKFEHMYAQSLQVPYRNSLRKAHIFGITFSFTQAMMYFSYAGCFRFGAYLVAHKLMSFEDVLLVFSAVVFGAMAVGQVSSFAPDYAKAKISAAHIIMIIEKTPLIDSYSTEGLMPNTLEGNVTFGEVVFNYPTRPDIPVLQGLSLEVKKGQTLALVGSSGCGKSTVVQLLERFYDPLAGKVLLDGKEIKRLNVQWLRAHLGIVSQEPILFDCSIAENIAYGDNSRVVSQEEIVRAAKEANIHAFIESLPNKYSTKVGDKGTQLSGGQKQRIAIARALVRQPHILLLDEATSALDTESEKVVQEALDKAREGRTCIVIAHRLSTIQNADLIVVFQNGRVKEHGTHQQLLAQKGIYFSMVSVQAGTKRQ

| Molecule | Substrate potential (human OAT3) | Fold accumulation over control, without inhibitor (inhibitor experiment) (human OAT3; before inhibitor‐reduced accumulation) [fold] | Substrate potential (human OAT3; [1]) | Maximum fold accumulation over control (human OAT3) [fold] | Substrate potential (human MDR1) | Substrate potential (human MDR1; [1]) | Maximum net ER (human MDR1) | Substrate potential (human OAT1) | Substrate potential (human OAT1; [1]) | Maximum fold accumulation over control (human OAT1) | Substrate potential (human MATE2‐K) | Substrate potential (human MATE2‐K; [1]) | Maximum fold accumulation over control (human MATE2‐K) | Substrate potential (human BCRP) | Substrate potential (human BCRP; [1]) | Maximum net ER (human BCRP) | Substrate potential (human OCT2) | Substrate potential (human OCT2; [1]) | Maximum fold accumulation over control (human OCT2) | Fold accumulation over control, in the presence of OAT3 inhibitor (human OAT3; with inhibitor probenecid) [fold] |
| --- | --- | --- | --- | --- | --- | --- | --- | --- | --- | --- | --- | --- | --- | --- | --- | --- | --- | --- | --- | --- |
| CC1=N[C@]2(C(=O)CO)[C@@H](C[C@H]3[C@@H]4C[C@@H](O)C5=CC(=O)C=C[C@]5(C)[C@H]4[C@@H](O)C[C@@]32C)O1 [6β‐OH‐21‐desDFZ, 6β‐Hydroxy‐21‐desacetyl deflazacort] | appeared to be an in vitro substrate; also recorded: in vitro substrate for human OAT3 | 1.75 | Yes | 2.71 | not a substrate | No | 0.59 at 1 and 5 µM | not a substrate | No | 1.15 at 2.5 µM and 20 min fold | not a substrate | No | 1.08 at 2.5 µM and 20 min fold | not a substrate | No | 0.17 at 2.5 µM | not a substrate | No | 1.32 at 1 µM and 20 min fold | – |
| [2’-^14C]-6β-hydroxy-21-desacetyl-deflazacort [^14C‐6β‐OH‐21‐desDFZ] | is an OAT3 substrate in vitro | – | – | 2.71 | – | – | 0.59 | – | – | < 2 fold | – | – | < 2 fold | – | – | 0.17 | – | – | < 2 fold | 1.08 |
